Data: US20250032387A1, “A PERSONAL CARE OR PHARMACEUTICAL COMPOSITION” (Conopco, Inc., d/b/a UNILEVER, priority 2021, published 2025)

Tested on: Human epidermal keratinocytes
Experiment: in vitro scratch-wound assay (keratinocyte migration)
Type: cell-based
Conditions: primary human epidermal keratinocytes, 24 h pre-culture with active, 24 h further culture, wound area ratio divided by control (control = 1), active level wt % of medium
Procedure: The migration of epidermal keratinocytes is the basis for skin re-epithelialization during wound healing. The in vitro scratch-wound assay using monolayers of primary human epidermal keratinocytes is a straightforward and effective method to assess the migratory capacity. Human epidermal keratinocytes (lot.: Ep21012001, Biocell) were seeded into 6-well plates, at 4.5×10^5 cells per well and maintained in a 37° C. incubator in an atmosphere of 5% of carbon dioxide in EpiLife™ Keratinocyte Medium until the cells reaching 70 to 80% of confluence in the well. Then, the cells were cultured by fresh medium (as control) or fresh medium supplemented with different actives for 24 hours. The cells were scratched by a […] of pipette tip in an identical manner to simulate the formation of wound, and images for the cells were taken immediately to record the wound. The cells were cultured again by identical fresh medium or fresh medium supplemented with different actives at 37° C. for 24 hours and images for the cells were taken again. The ratio of area before and after the further culture were obtained by using the software Image-pro plus. The relative migration rates for difference actives were calculated by dividing the values of control and were summarized in Table 1.

With `NC(=O)c1cccnc1` [A, Niacinamide] as the molecule, how does the Relative migration rate read?
Its Relative migration rate is 0.94.

Which Relative migration rate does the source give for `NC(=O)c1cccnc1` [B, Niacinamide] here?
The Relative migration rate was 1.19.

For `NC(=O)c1cccnc1` [C, Niacinamide], which Relative migration rate is on record?
Its Relative migration rate is 1.08.

For Lysine carboxymethyl cysteinate, which Relative migration rate is on record?
Its Relative migration rate is 1.15.

Lysine carboxymethyl cysteinate [D] was tested. Which Relative migration rate did it give?
The Relative migration rate was 1.04.
